In assay [1] the test system is BRAFV595E transitional epithelial cancer cells (TCCV-Ka strain). As to the kind of experiment: Anti-tumor activity by a xenograft test system (TCCV-Ka strain in SCID mice). It counts as in vivo, SCID mouse. The settings on record: 10 mg/kg intraperitoneally, 5 times/week, compared to control group, from day 5 of administration. The method, then: In order to observe the anti-tumor activity in the xenograft test system, it has been reported that the tumor growth depends on the number of cells inoculated, cell strains, and animal species. Then, five strains of V595E transitional epithelial cancer established cell lines, 1×10^6 and 1×10^7 cells/200 μl, were inoculated subcutaneously on the ventral side of SCID mouse (CB17/Icr-scid/scid. Jcl, CLEA Japan), and the formation of tumors was observed.
Using the TCCV-Ka strain as a graft cell, 1×10^7 cells were inoculated on the right ventral side of 5 SCID mice in each of the administration group and the control group. Two weeks later, a tumor of approximately 5×5 mm was formed. In the control group, 10% DMSO was administered intraperitoneally, and in the administration group, 200 μl of CEP32496 suspension solution (10 mg/kg) in 10% DMSO was administered intraperitoneally. The administration was 5 times/week.

The test system of assay [2] is canine V595E transitional epithelial cancer cells (TCCV-Ka, TCCV-So, TCCV-Ec, TCCV-Ni, TCCV-Ic). As to the kind of experiment: Cell proliferation suppressing test (WST 1), five V595E transitional epithelial cancer established cell lines. It counts as cell-based. The source says: Using five canine V595E transitional epithelial cancer established cell lines, taken from clinical cases by the inventors so far and cloned in approximately 80 passages, the cell proliferation suppressing activity of eight human BRAF inhibiting agents (GDC0879, AZ628, PLX4720, Encorafenib, Vemurafenib, Dabrafenib, RAF265, and CEP32496), which are available and have high cell proliferation suppressing activity, was investigated. In addition, in the xenograft test system, suppression of tumor growth (anti-tumor activity) was measured and the anti-tumor activity was investigated.
1,000 to 3,000 established cell lines (TCCV-Ka, TCCV-So, TCCV-Ec, TCCV-Ni, and TCCV-Ic) per well were spread on 96 well culture plates and cultured for 24 hours, then 8 BRAF inhibiting agents (GDC0879, AZ628, PLX4720, Encorafenib, Vemurafenib, Dabrafenib, RAF265, and CEP32496) dissolved in 0.1% DMSO were added with GDC0879, AZ628, Vemurafenib, Dabrafenib, and RAF265 at 0, 50, 100, 500, 1000, 5000, and 10000 nM, PLX4720 at 0, 1, 10, 100, 1000, 5000, and 10000 nM, Encorafenib at 0, 32, 63, 125, 250, 500, and 1000 nM, CEP32496 at 0, 3, 10, 30, 100, 300, and 1000 nM, the number of surviving cells after 24, 48, and 72 hours was measured using WST 1, and the cell proliferation suppressing activity was calculated. […]

The subject of assay [3] is V595E transitional epithelial cancer cells (TCCV-So strain). Briefly: Cell proliferation suppressing test (WST 1), TCCV-So strain. The following applies: Canis lupus familiaris. It counts as cell-based, canine. As to the method: (§1) 1,000 to 3,000 established cell lines (TCCV-Ka, TCCV-So, TCCV-Ec, TCCV-Ni, and TCCV-Ic) per well were spread on 96 well culture plates and cultured for 24 hours, then 8 BRAF inhibiting agents (GDC0879, AZ628, PLX4720, Encorafenib, Vemurafenib, Dabrafenib, RAF265, and CEP32496) dissolved in 0.1% DMSO were added with GDC0879, AZ628, Vemurafenib, Dabrafenib, and RAF265 at 0, 50, 100, 500, 1000, 5000, and 10000 nM, PLX4720 at 0, 1, 10, 100, 1000, 5000, and 10000 nM, Encorafenib at 0, 32, 63, 125, 250, 500, and 1000 nM, CEP32496 at 0, 3, 10, 30, 100, 300, and 1000 nM, the number of surviving cells after 24, 48, and 72 hours was measured using WST 1, and the cell proliferation suppressing activity was calculated.
(§2) One example of the reaction curve of the BRAF inhibiting agent against canine V595E transitional epithelial cancer cells (TCC V-So strain) was shown in FIG. 1.

Assay [4] relates to TCCV-Ec strain. Briefly: Cell proliferation suppressing test (WST 1), TCCV-Ec strain. The format is cell-based, canine. The settings on record: Canis lupus familiaris; TCCV-Ec strain only. The method, then:
as §1, §2

Assay [5] relates to TCCV-Ni strain. Briefly: Cell proliferation suppressing test (WST 1), TCCV-Ni strain. It counts as cell-based, canine. The following applies: Canis lupus familiaris.

pIC50: −log10 of the molar value.

Turning to `COc1cc2ncnc(Oc3cccc(NC(=O)Nc4cc(C(C)(C)C(F)(F)F)on4)c3)c2cc1OC` [CEP32496, 1-(3-((6,7-dimethoxyquinazolin-4-yl)oxy)phenyl)-3-(5-(1,1,1-trifluoro-2-methylpropan-2-yl)isoxazol-3-yl)urea], the “suppression of tumor formation (anti-tumor activity)” value in assay [1] was “significant suppression of tumor formation”. Moreover, the “proliferation suppressing activity compared to the other 7 BRAF inhibiting agents” value in assay [2] (5 strains, FIG. 2) is recorded as “significantly higher activity”. The pIC50 (as a rule, −log10 of the IC50, conventionally taken in molar units) in assay [2] (Canis lupus familiaris, all the cell strains used (5 strains)) is 6.70 to 8.05; in assay [3], 7.82.
`COC(=O)N[C@@H](C)CNc1nccc(-c2cn(C(C)C)nc2-c2cc(Cl)cc(NS(C)(=O)=O)c2F)n1` [Encorafenib] had a pIC50 in assay [4] of 6.74.
`CCCS(=O)(=O)Nc1ccc(F)c(C(=O)c2c[nH]c3ncc(Cl)cc23)c1F` [PLX4720]: the pIC50 in assay [4] was 6.70.
Regarding `Cn1c(Nc2ccc(C(F)(F)F)cc2)nc2cc(Oc3ccnc(-c4ncc(C(F)(F)F)[nH]4)c3)ccc21` [RAF265], in assay [4], the pIC50 was 6.82.
Regarding `CCCS(=O)(=O)Nc1ccc(F)c(C(=O)c2c[nH]c3ncc(-c4ccc(Cl)cc4)cc23)c1F` [Vemurafenib], the pIC50 in assay [5] was 5.82.

Source of the values: patent publication US20230132535A1, “PROLIFERATION SUPPRESSING AGENT FOR CANINE CANCER CELLS” (Japan Animal Referral Medical Center, priority 2020, published 2023).
